According to ChEMBL document CHEMBL3227984, “5-Substituted uracil arabinonucleosides as potential antiviral agents” (J Med Chem, 1979):
Active and inactive are the calls of the source. The calls are words filed in the database; no cut-off is given here.

Tested on: Vaccinia virus
Assay: Antiviral activity against Vaccinia virus infected in human skin fibroblasts assessed as inhibition of virus-induced cytopathogenicity
Format: functional, organism-based
Conditions: Orthopoxvirus vaccinia

**Q.** For O=c1ccn([C@@H]2O[C@H](CO)[C@@H](O)[C@@H]2O)c(=O)[nH]1 [ARAURIDINE], which inhibition is on record?
**A.** Active

**Q.** Which inhibition does the source give for O=c1[nH]c(=O)n([C@@H]2O[C@H](CO)[C@@H](O)[C@@H]2O)cc1O here?
**A.** Active

**Q.** How did the inhibition turn out when N#Cc1cn([C@@H]2O[C@H](CO)[C@@H](O)[C@@H]2O)c(=O)[nH]c1=O was run?
**A.** Active

**Q.** With Cc1cn([C@@H]2O[C@H](CO)[C@@H](O)[C@@H]2O)c(=O)[nH]c1=O as the compound, how does the inhibition read?
**A.** Active

**Q.** With O=c1[nH]c(=O)n([C@@H]2O[C@H](CO)[C@@H](O)[C@@H]2O)cc1[N+](=O)[O-] as the compound, how does the inhibition read?
**A.** Active
